Key:
[1] = biological target: T1, Drosophila OR85b (Drosophila melanogaster, UniProt Q9VHQ7); experiment: Calcium ion fluorescence (GCaMP6) assay, OR85b stable HEK293 cell line; type: cell-based; settings: for activation at 1 µM / activation at 10 µM / activation at 100 µM: HEK293, read-out: OR85b response (VUAA1-normalized response); for Average response: OR85b cell line, VUAA1-normalized response, mean of biological replicates; for DF norm AVERAGE OR85b: threshold 0.05, below shown as 0
T1 construct: expressed in transfected cells
T1 sequence (Q9VHQ7 1-390): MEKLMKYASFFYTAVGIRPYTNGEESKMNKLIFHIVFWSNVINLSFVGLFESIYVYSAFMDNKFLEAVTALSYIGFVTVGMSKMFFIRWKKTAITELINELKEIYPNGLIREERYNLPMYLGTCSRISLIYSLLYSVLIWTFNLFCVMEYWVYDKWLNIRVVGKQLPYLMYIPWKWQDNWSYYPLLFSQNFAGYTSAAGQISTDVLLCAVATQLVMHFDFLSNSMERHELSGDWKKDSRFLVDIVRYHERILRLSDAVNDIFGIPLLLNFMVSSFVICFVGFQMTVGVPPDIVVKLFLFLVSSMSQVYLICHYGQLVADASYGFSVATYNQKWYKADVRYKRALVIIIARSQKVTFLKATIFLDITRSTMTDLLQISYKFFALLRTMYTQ
T1 sequence (Q9VNB5 1-486 partner): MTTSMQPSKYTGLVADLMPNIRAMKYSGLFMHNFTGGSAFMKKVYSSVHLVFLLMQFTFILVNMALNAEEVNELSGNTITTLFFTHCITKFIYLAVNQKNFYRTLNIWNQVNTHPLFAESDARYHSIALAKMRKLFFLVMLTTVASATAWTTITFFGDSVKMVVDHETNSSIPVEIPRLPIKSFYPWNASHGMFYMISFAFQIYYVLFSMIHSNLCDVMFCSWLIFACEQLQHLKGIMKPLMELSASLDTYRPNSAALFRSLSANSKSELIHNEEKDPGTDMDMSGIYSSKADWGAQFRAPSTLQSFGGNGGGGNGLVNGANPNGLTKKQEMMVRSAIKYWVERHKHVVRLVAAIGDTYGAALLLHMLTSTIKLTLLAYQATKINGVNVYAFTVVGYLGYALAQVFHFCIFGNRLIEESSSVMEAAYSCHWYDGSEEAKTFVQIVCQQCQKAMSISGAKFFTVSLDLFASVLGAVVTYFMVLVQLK
How it was run: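 HEK293 lines stably expressing each Drosophila OR with GCaMP6, doxycycline-induced (1 μg/mL) 48 or 72 h. Fluorescence recorded 5 s baseline then 30 s after VOC injection at pH 7.3; ΔF=(FMAX−F0)/F0, normalized to 50 µM VUAA1 response per line, triplicate wells averaged; concentration series 0.01–100 μM.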

[2] = test system: OR10a; set-up: method as in earlier work; settings: DoOR database value; ref DoOR; cited from earlier work
[3] = test system: OR13a; set-up: method as in earlier work; settings: DoOR database value; ref DoOR; cited from earlier work
[4] = test system: OR47a; set-up: method as in earlier work; settings: DoOR database value; ref DoOR; cited from earlier work
[5] = test system: OR49b; set-up: method as in earlier work; settings: DoOR database value; ref DoOR; cited from earlier work
[6] = test system: OR71a; set-up: method as in earlier work; settings: DoOR database value; ref DoOR; cited from earlier work
[7] = test system: OR85b; set-up: method as in earlier work; settings: DoOR database value; ref DoOR; cited from earlier work
[8] = test system: OR98a; set-up: method as in earlier work; settings: DoOR database value; ref DoOR; cited from earlier work
[9] = ligand concentration 1 (unit not given)
[10] = ligand concentration 10 (unit not given)
[11] = ligand concentration 100 (unit not given)

| SMILES | activation at 1 µM [1] [%] | activation at 10 µM [1] [%] | activation at 100 µM [1] [%] | Average response ([1]; cc. 1 µM) | Average response ([1]; cc. 10 µM) | Average response ([1]; cc. 100 µM) | DF norm AVERAGE OR85b [1, 9] | DF norm AVERAGE OR85b [1, 10] | DF norm AVERAGE OR85b [1, 11] | OR10a DoOR response [2] | OR13a DoOR response [3] | OR47a DoOR response [4] | OR49b DoOR response [5] | OR71a DoOR response [6] | OR85b DoOR response [7] | OR98a DoOR response [8] |
| --- | --- | --- | --- | --- | --- | --- | --- | --- | --- | --- | --- | --- | --- | --- | --- | --- |
| CCCC(=O)OCC [ethyl butyrate] | 0 | 0 | 0 | 0.00 | 0.0253 | 0.0224 | 0 | 0 | 0 | 0.025 | 0.11 | 0.26 | -0.002 | 0.046 | 0.21 | 0.25 |
| C=CCc1ccc(O)c(OC)c1 [eugenol] | 0 | 0 | 9 | 0.00 | 0.0188 | 0.09 | 0 | 0 | 0.09022 | 0.15 | 0.024 | -0.013 | 0.002 | 0.73 | 0.053 | 0.15 |
| CC(=O)OCCC(C)C [isopentyl acetate] | 0 | 7 | 0 | 0.00 | 0.07 | 0.0239 | 0 | 0.07146 | 0 | 0.42 | 0.15 | 0.41 | 0.027 | 0.03 | 0.34 | 0.64 |
| CC1=CC[C@@H](C(C)(C)O)CC1 [alpha-terpineol] | 0 | 0 | 0 | 0.05 | 0.03 | 0.02 | 0 | 0 | 0 | -0.005 | 0.023 | 0.018 | 0.006 | 0.008 | 0.11 | 0.033 |

— article PMC10709440, “High-throughput ligand profile characterization in novel cell lines expressing seven heterologous insect olfactory receptors for the detection of volatile plant biomarkers” (Scientific Reports, 2023)
